We go through 1 molecule from patent US4062950A, “Amino sugar derivatives” (priority 1973, dated 1977).

This assay deals with T1, saccharase (Sus scrofa, UniProt P56729).
T1 construct: sucrase subunit of the sucrase-isomaltase complex hydrolyses sucrose
Nature of the assay: In vitro saccharase test. Type of assay: biochemical, pig. The conditions noted are these: isolated isomer, Example 19. Here is the method:
One saccharase inhibitor unit (SIU) is defined as the amount of inhibitor which inhibits two saccharase units to the extent of 50%. One saccharase unit (SU) is the amount of enzyme which under the test conditions specified splits 1 μmol of sucrose to glucose and fructose per minute. The μmols of glucose formed are determined quantitatively by means of the glucose oxidase reaction under conditions under which a further splitting of the sucrose by the saccharase no longer takes place. To carry out the test, 0.05 ml of solubilized saccharase [from the mucous membrane of the small intestine of the pig, according to B. Borgastrom, A. Dahlquist, Acta Chem. Scand. 12, (1958), page 1,997], diluted with 0.1 M sodium maleate buffer of pH 6.0 to a SU content adjusted to 0.12 SU is mixed with 0-20 μg of inhibitor or 0-20 μl of the solution to be tested and brought up to 0.1 ml with 0.1 M sodium maleate buffer of pH 6.0. The mixture is equilibrated for 10 minutes at 35° C and 0.1 ml of an 0.05 M sucrose solution in 0.1 M sodium maleate buffer of pH 6.0, pre-warmed to 35° C, is then added. The mixture is incubated for 20 minutes at 35° C, the saccharase reaction is stopped by addition of 1 ml of glucose oxidase reagent, and the incubation is continued for a further 30 minutes at 35° C. (The glucose oxidase reagent is prepared by dissolving 2 mg of glucose oxidase, Boehringer, No. 15,423, in 100 ml of 0.565 M tris-HCl buffer of pH 7.0 and subsequently adding 1 ml of detergent solution (2 g of Triton X 100 + 8 g of 95% strength and analytical grade ethanol), 1 ml of dianisidine solution (260 mg of o-dianisidine. 2HCl in 20 ml of H2 O) and 0.5 ml of 0.1% strength aqueous peroxidase solution, Boehringer, No. 15,302). Thereafter, 1 ml of 50% strength H2 SO4 is added and a measurement carried out at 545 nm against a corresponding blank. To evaluate the results, the percentage inhibition of the saccharase employed is calculated and converted to SIU/g of SIU/liter from the 50% inhibition point, using a glucose calibration curve.

T1 sequence (P56729 with tags, fused parts or gaps): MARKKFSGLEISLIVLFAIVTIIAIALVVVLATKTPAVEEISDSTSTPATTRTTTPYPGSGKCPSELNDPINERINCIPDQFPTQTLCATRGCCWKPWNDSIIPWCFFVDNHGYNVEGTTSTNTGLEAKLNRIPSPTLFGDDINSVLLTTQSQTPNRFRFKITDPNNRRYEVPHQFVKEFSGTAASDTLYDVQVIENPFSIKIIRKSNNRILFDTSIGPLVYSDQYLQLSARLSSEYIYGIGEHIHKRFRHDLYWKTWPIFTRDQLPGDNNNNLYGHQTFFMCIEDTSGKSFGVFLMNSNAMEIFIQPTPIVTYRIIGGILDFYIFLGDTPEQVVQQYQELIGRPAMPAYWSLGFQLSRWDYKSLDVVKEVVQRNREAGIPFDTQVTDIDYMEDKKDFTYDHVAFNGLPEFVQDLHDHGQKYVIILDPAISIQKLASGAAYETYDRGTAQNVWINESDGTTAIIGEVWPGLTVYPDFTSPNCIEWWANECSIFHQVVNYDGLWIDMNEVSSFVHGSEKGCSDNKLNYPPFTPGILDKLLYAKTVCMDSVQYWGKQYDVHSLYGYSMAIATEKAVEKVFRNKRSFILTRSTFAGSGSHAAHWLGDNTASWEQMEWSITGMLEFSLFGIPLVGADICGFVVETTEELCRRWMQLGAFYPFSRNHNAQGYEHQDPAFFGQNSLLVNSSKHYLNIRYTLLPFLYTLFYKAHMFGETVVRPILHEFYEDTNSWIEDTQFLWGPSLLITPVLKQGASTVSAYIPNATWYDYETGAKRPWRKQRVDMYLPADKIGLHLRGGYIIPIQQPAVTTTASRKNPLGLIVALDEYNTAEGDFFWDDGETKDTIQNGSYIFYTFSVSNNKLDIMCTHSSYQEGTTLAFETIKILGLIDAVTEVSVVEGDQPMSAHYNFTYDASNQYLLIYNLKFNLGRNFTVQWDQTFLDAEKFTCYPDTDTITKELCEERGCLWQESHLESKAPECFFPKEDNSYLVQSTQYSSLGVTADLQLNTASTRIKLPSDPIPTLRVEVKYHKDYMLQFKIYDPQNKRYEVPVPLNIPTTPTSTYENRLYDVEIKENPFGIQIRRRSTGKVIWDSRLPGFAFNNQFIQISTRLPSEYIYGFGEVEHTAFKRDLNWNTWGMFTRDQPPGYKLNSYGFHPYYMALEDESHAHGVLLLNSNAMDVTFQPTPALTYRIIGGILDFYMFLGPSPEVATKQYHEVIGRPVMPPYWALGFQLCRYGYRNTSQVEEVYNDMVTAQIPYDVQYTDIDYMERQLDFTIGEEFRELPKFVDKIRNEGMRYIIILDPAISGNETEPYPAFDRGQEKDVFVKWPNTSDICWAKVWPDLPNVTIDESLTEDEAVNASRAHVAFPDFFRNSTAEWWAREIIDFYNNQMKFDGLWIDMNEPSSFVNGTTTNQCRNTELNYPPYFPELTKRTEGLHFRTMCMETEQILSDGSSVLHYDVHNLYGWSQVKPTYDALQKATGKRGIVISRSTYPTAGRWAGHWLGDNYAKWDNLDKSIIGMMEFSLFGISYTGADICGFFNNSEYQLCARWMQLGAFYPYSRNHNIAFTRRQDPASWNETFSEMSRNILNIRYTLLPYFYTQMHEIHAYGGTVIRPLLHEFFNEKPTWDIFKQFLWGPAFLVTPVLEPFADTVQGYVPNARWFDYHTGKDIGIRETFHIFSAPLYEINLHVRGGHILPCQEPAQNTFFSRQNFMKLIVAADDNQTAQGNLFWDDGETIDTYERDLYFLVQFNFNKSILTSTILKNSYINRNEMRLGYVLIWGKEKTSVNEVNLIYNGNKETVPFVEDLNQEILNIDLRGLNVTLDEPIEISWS

Molecule `C[C@H]1O[C@H](O[C@H]2[C@H](O)[C@@H](O)[C@@H](O[C@H]3[C@H](O)[C@@H](O)[C@@H](O[C@H]4[C@H](O)[C@@H](O)C(O)O[C@@H]4CO)O[C@@H]3CO)O[C@@H]2CO)[C@H](O)[C@@H](O)[C@@H]1N[C@H]1C=C(CO)[C@@H](O)[C@H](O)[C@H]1O` (stereo partly drawn) [Formula IV, O-{4,6-bisdesoxy-4-[1S-(1,4,6/5)-4,5,6-trihydroxy-3-hydroxymethylcyclohex-2-en-1-ylamino]-α-D-glucopyranosyl}-(1→4)-O-α-D-glucopyranosyl-(1→4)-O-α-D-glucopyranosyl-(1→4)-D-glycopyranose] had an in vitro saccharase inhibiting activity of 19000 SIU/g.
